≈ marks a conversion by molar mass, not a printed value. Like-named read-outs stand apart in the source and are kept apart here.
Key:
[1] = test system: S. aureus; experiment: Serial twofold agar dilution (Mueller-Hinton agar), S. aureus; assay type: cell-based; details: Staphylococcus aureus
In short: (§1)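 Compound was diluted twofold serially into Mueller-Hinton agar plates. Organisms were then applied with Steers' apparatus, and the MIC was read for each strain in a 31-organism primary panel and a 61-strain P. aeruginosa set.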

[2] = test system: E. coli; experiment: Serial twofold agar dilution (Mueller-Hinton agar), E. coli; assay type: cell-based; details: Escherichia coli
In short: as §1

[3] = test system: K. pneumoniae; experiment: Serial twofold agar dilution (Mueller-Hinton agar), K. pneumoniae; assay type: cell-based; details: Klebsiella pneumoniae, K. pneumoniae A9977, Table 8, read-out: MIC
In short: as §1

[4] = test system: Klebsiella sp.; experiment: Serial twofold agar dilution (Mueller-Hinton agar), Klebsiella sp.; assay type: cell-based; details: Klebsiella sp. A20452, Mueller-Hinton agar, Table 8, read-out: MIC
In short: as §1

[5] = test system: E. cloacae; experiment: Serial twofold agar dilution (Mueller-Hinton agar), E. cloacae; assay type: cell-based; details: Enterobacter cloacae
In short: as §1

[6] = test system: P. mirabilis; experiment: Serial twofold agar dilution (Mueller-Hinton agar), P. mirabilis; assay type: cell-based; details: Proteus mirabilis, P. mirabilis A9900; Mueller-Hinton agar; Table 8; read-out: MIC
In short: as §1

[7] = test system: P. vulgaris; experiment: Serial twofold agar dilution (Mueller-Hinton agar), P. vulgaris; assay type: cell-based; details: Proteus vulgaris, P. vulgaris A9539, Table 8, read-out: MIC
In short: as §1

[8] = test system: P. morganii; experiment: Serial twofold agar dilution (Mueller-Hinton agar), P. morganii; assay type: cell-based; details: Morganella morganii, P. morganii A9553, Table 8, read-out: MIC
In short: as §1

[9] = test system: S. enteritidis; experiment: Serial twofold agar dilution (Mueller-Hinton agar), S. enteritidis; assay type: cell-based; details: Salmonella enterica, S. enteritidis A9531, Table 8, read-out: MIC
In short: as §1

[10] = test system: S. marcescens; experiment: Serial twofold agar dilution (Mueller-Hinton agar), S. marcescens; assay type: cell-based; details: Serratia marcescens, S. marcescens A20019, Table 8
In short: as §1

[11] = test system: Pseudomonas aeruginosa; experiment: Serial twofold agar dilution (Mueller-Hinton agar), P. aeruginosa; assay type: cell-based; details: Pseudomonas aeruginosa
In short: as §1

[12] = test system: Pseudomonas sp.; experiment: Serial twofold agar dilution (Mueller-Hinton agar), Pseudomonas sp.; assay type: cell-based; details: Pseudomonas sp. A20358, Table 8, read-out: MIC
In short: as §1

[13] = Mouse blood levels after subcutaneous administration; details: in vivo, sc, 20 mg/kg
Method: Mouse blood levels of BB-[…] and BB-[…] were determined by subcutaneous administration of 20 mg/kg of the penicillin to groups of three mice. Blood samples collected from orbital sinuses were assayed by the paper disk agar-diffusion method on Sarcina lutea PC1 1001 plates.

SMILES: CC1(C)S[C@@H]2[C@H](NC(=O)C(C(=O)O)c3ccccc3)C(=O)N2[C@H]1C(=O)O (stereo partly drawn) [Carbenicillin, reference compound]
- MIC ([1]; S. aureus A15097, Table 8, read-out: MIC): 50 µg/mL (≈ 132 µM)
- MIC ([1]; S. aureus A20239, Table 8, read-out: MIC): 6.3 µg/mL (≈ 16.6 µM)
- MIC ([1]; S. aureus A20240, Table 8, read-out: MIC): 3.1 µg/mL (≈ 8.19 µM)
- MIC ([1]; S. aureus A20701, Table 8, read-out: MIC): 50 µg/mL (≈ 132 µM)
- MIC ([1]; S. aureus BX-1633 A9606, Table 8, read-out: MIC): 6.3 µg/mL (≈ 16.6 µM)
- MIC ([1]; S. aureus Smith A9537, Table 8, read-out: MIC): 0.2 µg/mL (≈ 0.529 µM)
- MIC ([2]; E. coli A9635, Table 8, read-out: MIC): 6.3 µg/mL (≈ 16.6 µM)
- MIC ([2]; E. coli A9844, Table 8, read-out: MIC): 0.4 µg/mL (≈ 1.06 µM)
- MIC ([2]; E. coli A20366, Table 8, read-out: MIC): > 100 µg/mL
- MIC ([2]; E. coli A20520, Table 8, read-out: MIC): 1.6 µg/mL (≈ 4.23 µM)
- MIC ([2]; E. coli A20664, Table 8, read-out: MIC): 0.8 µg/mL (≈ 2.11 µM)
- MIC ([2]; E. coli A20732, Table 8, read-out: MIC): > 100 µg/mL
- MIC ([2]; E. coli A20898, Table 8, read-out: MIC): > 100 µg/mL
- MIC ([2]; E. coli Juhl A15119, Table 8, read-out: MIC): 3.1 µg/mL (≈ 8.19 µM)
- MIC ([2]; E. coli NIHJ, Table 8, read-out: MIC): 0.4 µg/mL (≈ 1.06 µM)
- MIC [3]: 3.1 µg/mL (≈ 8.19 µM)
- MIC [4]: 6.3 µg/mL (≈ 16.6 µM)
- MIC ([5]; E. cloacae A9656, Table 8): 3.1 µg/mL (≈ 8.19 µM)
- MIC ([5]; E. cloacae A9657, Table 8): 25 µg/mL (≈ 66.1 µM)
- MIC ([5]; E. cloacae A9659, Table 8): 3.1 µg/mL (≈ 8.19 µM)
- MIC [6]: 0.4 µg/mL (≈ 1.06 µM)
- MIC [7]: 1.6 µg/mL (≈ 4.23 µM)
- MIC [8]: > 100 µg/mL
- MIC [9]: 0.8 µg/mL (≈ 2.11 µM)
- MIC [10]: 3.1 µg/mL (≈ 8.19 µM)
- MIC ([11]; 61 strains of P. aeruginosa, Table 9, read-out: Geometric mean of MIC): 30 µg/mL (≈ 79.2 µM)
- MIC ([11]; ATCC19660, Pa-14 ATCC 19660 A20325, Mueller-Hinton agar, Table 9, read-out: MIC): 50 µg/mL (≈ 132 µM)
- MIC ([11]; GN315, Pa-27 GN315 A21294, Mueller-Hinton agar, Table 9, read-out: MIC): 25 µg/mL (≈ 66.1 µM)
- MIC ([11]; GN4925, Pa-45 GN 4925, Mueller-Hinton agar, Table 9, read-out: MIC): 100 µg/mL (≈ 264 µM)
- MIC ([11]; P. aeruginosa A9843, Mueller-Hinton agar, Table 8, read-out: MIC): 25 µg/mL (≈ 66.1 µM)
- MIC ([11]; P. aeruginosa A9930, Mueller-Hinton agar, Table 8, read-out: MIC): 25 µg/mL (≈ 66.1 µM)
- MIC ([11]; P. aeruginosa A15150, Mueller-Hinton agar, Table 8, read-out: MIC): 25 µg/mL (≈ 66.1 µM)
- MIC ([11]; P. aeruginosa A20717, Mueller-Hinton agar, Table 8, read-out: MIC): 100 µg/mL (≈ 264 µM)
- MIC ([11]; Pa-1 D15, Mueller-Hinton agar, Table 9, read-out: MIC): 12.5 µg/mL (≈ 33 µM)
- MIC ([11]; Pa-3 1449 V.A A9930, Mueller-Hinton agar, Table 9, read-out: MIC): 12.5 µg/mL (≈ 33 µM)
- MIC ([11]; Pa-5 M4865, K.C A15150, Mueller-Hinton agar, Table 9, read-out: MIC): 6.3 µg/mL (≈ 16.6 µM)
- MIC ([11]; Pa-6 No. 5 Levitan A15194, Mueller-Hinton agar, Table 9, read-out: MIC): > 100 µg/mL
- MIC ([11]; Pa-7 A9843, Mueller-Hinton agar, Table 9, read-out: MIC): 50 µg/mL (≈ 132 µM)
- MIC ([11]; Pa-10 A21479, Mueller-Hinton agar, Table 9, read-out: MIC): > 100 µg/mL
- MIC ([11]; Pa-12 A20653, Mueller-Hinton agar, Table 9, read-out: MIC): 50 µg/mL (≈ 132 µM)
- MIC ([11]; Pa-15 A20717, Mueller-Hinton agar, Table 9, read-out: MIC): > 100 µg/mL
- MIC ([11]; Pa-16 #130 A20718, Mueller-Hinton agar, Table 9, read-out: MIC): 6.3 µg/mL (≈ 16.6 µM)
- MIC ([11]; Pa-17 H6, D114, Mueller-Hinton agar, Table 9, read-out: MIC): 12.5 µg/mL (≈ 33 µM)
- MIC ([11]; Pa-18 H8, D121, Mueller-Hinton agar, Table 9, read-out: MIC): 3.1 µg/mL (≈ 8.19 µM)
- MIC ([11]; Pa-19 A20229, Mueller-Hinton agar, Table 9, read-out: MIC): 12.5 µg/mL (≈ 33 µM)
- MIC ([11]; Pa-24 A20896, Mueller-Hinton agar, Table 9, read-out: MIC): > 100 µg/mL
- MIC ([11]; Pa-25 A20897, Mueller-Hinton agar, Table 9, read-out: MIC): 3.1 µg/mL (≈ 8.19 µM)
- MIC ([11]; Pa-26 PS32, Mueller-Hinton agar, Table 9, read-out: MIC): 0.4 µg/mL (≈ 1.06 µM)
- MIC ([11]; Pa-28 C.P.H. 10527/72, Mueller-Hinton agar, Table 9, read-out: MIC): 50 µg/mL (≈ 132 µM)
- MIC ([11]; Pa-31 A20594, Mueller-Hinton agar, Table 9, read-out: MIC): 12.5 µg/mL (≈ 33 µM)
- MIC ([11]; Pa-32 A20595, Mueller-Hinton agar, Table 9, read-out: MIC): 50 µg/mL (≈ 132 µM)
- MIC ([11]; Pa-33 A20598, Mueller-Hinton agar, Table 9, read-out: MIC): 12.5 µg/mL (≈ 33 µM)
- MIC ([11]; Pa-35, Mueller-Hinton agar, Table 9, read-out: MIC): 100 µg/mL (≈ 264 µM)
- MIC ([11]; Pa-36, Mueller-Hinton agar, Table 9, read-out: MIC): 1.6 µg/mL (≈ 4.23 µM)
- MIC ([11]; Pa-37 A20130, Mueller-Hinton agar, Table 9, read-out: MIC): 50 µg/mL (≈ 132 µM)
- MIC ([11]; Pa-38 A20349, Mueller-Hinton agar, Table 9, read-out: MIC): 100 µg/mL (≈ 264 µM)
- MIC ([11]; Pa-39 A20641, Mueller-Hinton agar, Table 9, read-out: MIC): 12.5 µg/mL (≈ 33 µM)
- MIC ([11]; Pa-42 A21229, Mueller-Hinton agar, Table 9, read-out: MIC): > 100 µg/mL
- MIC ([11]; Pa-43 A21233, Mueller-Hinton agar, Table 9, read-out: MIC): 50 µg/mL (≈ 132 µM)
- MIC ([11]; Pa-44 A21274, Mueller-Hinton agar, Table 9, read-out: MIC): 50 µg/mL (≈ 132 µM)
- MIC ([11]; Pa-52 A9926, Mueller-Hinton agar, Table 9, read-out: MIC): 50 µg/mL (≈ 132 µM)
- MIC ([11]; Pa-54 A20128, Mueller-Hinton agar, Table 9, read-out: MIC): 50 µg/mL (≈ 132 µM)
- MIC ([11]; Pa-55 A20227, Mueller-Hinton agar, Table 9, read-out: MIC): 50 µg/mL (≈ 132 µM)
- MIC ([11]; Pa-57 A20546, Mueller-Hinton agar, Table 9, read-out: MIC): 50 µg/mL (≈ 132 µM)
- MIC ([11]; Pa-58 A20557, Mueller-Hinton agar, Table 9, read-out: MIC): 50 µg/mL (≈ 132 µM)
- MIC ([11]; Pa-61 A20726, Mueller-Hinton agar, Table 9, read-out: MIC): 50 µg/mL (≈ 132 µM)
- MIC ([11]; Pa-62 A21213, Mueller-Hinton agar, Table 9, read-out: MIC): > 100 µg/mL
- MIC ([11]; Pa-66 A21434, Mueller-Hinton agar, Table 9, read-out: MIC): 50 µg/mL (≈ 132 µM)
- MIC ([11]; Pa-67 A21509, Mueller-Hinton agar, Table 9, read-out: MIC): 50 µg/mL (≈ 132 µM)
- MIC ([11]; Pa-68 A21510, Mueller-Hinton agar, Table 9, read-out: MIC): 50 µg/mL (≈ 132 µM)
- MIC ([11]; Pa-69 A21587, Mueller-Hinton agar, Table 9, read-out: MIC): 100 µg/mL (≈ 264 µM)
- MIC [12]: 3.1 µg/mL (≈ 8.19 µM)
- concentration at 0.25 h [13]: 11500 ng/mL
- concentration at 0.5 h [13]: 9000 ng/mL
- concentration at 1 h [13]: 5800 ng/mL
